Measurements reported in ChEMBL document CHEMBL5365416, “Identification of Ecdysteroid Sinapate Esters with COX-2 Inhibitory Effects from Fibraurea recisa Using Molecular Networking and MS2LDA” (2023).
Active and inactive are the calls of the source. No cut-off for these calls is given here.

Experiments:
RAW264.7 [1] = test: Inhibition of LPS-induced COX2 protein expression in mouse RAW264.7 cells at 0.1 to 30 uM incubated for 24 hrs by Western blot analysis; format: functional, cell-based; settings: dose 0.1-30 µM
RAW264.7 [2] = test: Inhibition of LPS-induced COX2 protein expression in mouse RAW264.7 cells at 1 to 30 uM incubated for 24 hrs by Western blot analysis; format: functional, cell-based; settings: dose 1-30 µM
RAW264.7 [3] = test: Inhibition of LPS-induced NO production in mouse RAW264.7 cells at 30 uM relative to control; format: functional
RAW264.7 [4] = test: Inhibition of LPS-induced iNOS protein expression in mouse RAW264.7 cells at 30 uM incubated for 24 hrs by Western blot analysis; format: functional, cell-based

| SMILES | inhibition (RAW264.7 [1]) | inhibition (RAW264.7 [2]) | inhibition at 30 µM (RAW264.7 [3]) [%] | inhibition (RAW264.7 [4]) |
| --- | --- | --- | --- | --- |
| C[C@H](C[C@@H](O)[C@](C)(O)[C@H]1CC[C@@]2(O)C3=CC(=O)[C@@H]4C[C@@H](O)[C@@H](O)C[C@]4(C)[C@H]3CC[C@]12C)C(C)(C)O | inactive | – | – | – |
| COC(=O)/C=C/c1cc(OC)c(O)c(OC)c1 | inactive | – | – | – |
| COc1cc(/C=C/C(=O)O[C@H]2C[C@@]3(C)[C@@H](C[C@H]2O)C(=O)C=C2[C@@H]3CC[C@]3(C)[C@@H]([C@@](C)(O)[C@H](O)C[C@@H](C)C(C)(C)O)CC[C@@]23O)cc(OC)c1O | – | Active | 12.7 | inactive |
| COc1cc(/C=C/C(=O)O[C@@H]2C[C@H]3C(=O)C=C4[C@H](CC[C@]5(C)[C@@H]([C@@](C)(O)[C@H](O)C[C@@H](C)C(C)(C)O)CC[C@@]45O)[C@@]3(C)C[C@@H]2O)cc(OC)c1O | – | inactive | 14.7 | inactive |
